Test results reported in patent US20150219624A1, “METHODS FOR IDENTIFYING ANTI-CANCER COMPOUNDS” (MEMORIAL SLOAN KETTERING CANCER CENTER, priority 2013, published 2015).
“And” between values parts separate entries of the source, which are not always exact repeats. Identical values can stand only once.

Experiment: In vivo toxicity studies (body and organ weights, hematology, clinical chemistry, histopathology)
Method: Toxicity studies. Eight week-old C57Bl/6NTac female mice were randomly assigned to either control or treatment groups. Each treatment group received one daily dose of test article through i.p. injection over 5 consecutive days. Toxicity was monitored by weight loss and daily clinical observation for the 14 days following test article administration. 24 hours after the last test article administration 4 mice in each group were sacrificed and clinical chemistry, hematology and tissue specific histopathology were done at autopsy. The remaining mice (n=2 per group) were kept under observation for an additional 13 days; at that point all mice were sacrificed and clinical chemistry, hematology and tissue specific histopathology were done at time of autopsy.
D) KOPT-K1 xenograft studies.

[1] = 0.2 mg/kg, female, Day 5, individual animals
[2] = 0.2 mg/kg, female, Day 19, % change of mean vs vehicle
[3] = 0.2 mg/kg, female, Day 19, group mean
[4] = 0.2 mg/kg, female, Day 19, individual animals
[5] = bone marrow cytology, count of 300 total cells, individual animals Treatment #7-#10
[6] = bone marrow cytology, individual animals Treatment #7-#10
[7] = spleen cytology, individual animals Treatment #7-#10
[8] = therapeutic doses (0.2 mg/kg i.p.)

## (±)-CR-31-B
[1]
  NEUT: 1.05 K/uL and 1.69 K/uL and 1.40 K/uL and 1.70 K/uL
  NEUT %: 21.94% and 24.51% and 28.20% and 24.44%
  Na: 152 mEq/L and 147 mEq/L (2×) and 150 mEq/L
  PLT: 872 K/uL and 673 K/uL and 676 K/uL and 682 K/uL
  RBC: 9.31 M/uL and 8.95 M/uL and 8.69 M/uL and 8.89 M/uL
  RDW %: 15.6% and 16.1% and 15.2% and 16.4%
  Right Kidney: 0.119 gm and 0.125 gm (2×) and 0.135 gm and 0.75 % body wt and 0.73 % body wt and 0.77 % body wt and 0.78 % body wt
  Spleen: 0.049 gm and 0.070 gm and 0.086 gm and 0.064 gm and 0.31 % body wt and 0.41 % body wt and 0.49 % body wt and 0.40 % body wt
  TBIL: 0.2 mg/d L (3×) and 0.1 mg/d L
  TP: 5.1 g/dL and 4.8 g/dL (2×) and 4.9 g/dL
  WBC: 4.78 K/uL and 6.90 K/uL and 4.98 K/uL and 6.96 K/uL
[2]
  BASO % % ChVh: 27.3%
  BASO (K/uL) % ChVh: −100.0%
  Body Weight % ChVh: 3.6%
  EOS % % ChVh: 5.5%
  EOS (K/uL) % ChVh: −50.0%
  HCT % % ChVh: 0.2%
  HGB % ChVh: −5.0%
  LYM % % ChVh: −0.1%
  LYM (K/uL) % ChVh: −58.8%
  Left Kidney (% body wt) % ChVh: −9.1%
  Left Kidney (gm) % ChVh: −11.8%
  Liver (% body wt) % ChVh: 4.1%
  Liver (gm) % ChVh: 7.9%
  MCH % ChVh: -4.5%
  MCHC % ChVh: -5.4%
  MCV % ChVh: 0.4%
  MONO % % ChVh: −34.0%
  MONO (K/uL) % ChVh: −70.0%
  MPV % ChVh: 4.3%
  NEUT % % ChVh: 3.7%
  NEUT (K/uL) % ChVh: −56.3%
  PLT % ChVh: 10.5%
  RBC % ChVh: −0.2%
  RDW % % ChVh: 0.6%
  Right Kidney (% body wt) % ChVh: −6.3%
  Right Kidney (gm) % ChVh: −3.6%
  Spleen (% body wt) % ChVh: 0.0%
  Spleen (gm) % ChVh: 3.2%
  WBC % ChVh: −58.5%
[3]
  BASO: 0.00 K/uL
  BASO %: 0.14%
  Body Weight: 17.981 gm
  EOS: 0.02 K/uL
  EOS %: 0.58%
  HCT %: 44.2%
  HGB: 13.2 g/dL
  LYM: 2.46 K/uL
  LYM %: 84.19%
  MCH: 14.7 pg
  MCHC: 29.9 g/dL
  MCV: 49.0 fL
  MONO: 0.03 K/uL
  MONO %: 0.93%
  MPV: 4.8 fL
  NEUT: 0.42 K/uL
  NEUT %: 14.16%
  PLT: 1196.5 K/uL
  RBC: 9.02 M/uL
  RDW %: 16.3%
  WBC: 2.93 K/uL
[4]
  2D. Individual chemistry, column 2 (head not shown; probably ALP): 144 and 160
  2D. Individual chemistry, column 3 (head not shown; probably ALT): 20 and 22
  2D. Individual chemistry, column 4 (head not shown; probably AST): 33 and 38
  2D. Individual chemistry, column 5 (head not shown; probably GGT): 0
  2D. Individual chemistry, column 6 (head not shown; probably albumin): 2.9
  2D. Individual chemistry, column 7 (head not shown; probably total protein): 4.7
  2D. Individual chemistry, column 8 (head not shown; probably globulin): 1.8
  2D. Individual chemistry, column 10 (head not shown; probably total bilirubin): 0.1
  2D. Individual chemistry, column 11 (head not shown; probably BUN): 29 and 35
  2D. Individual chemistry, column 12 (head not shown; probably creatinine): 0.2
  BASO: 0.00 K/uL
  BASO %: 0.14% and 0.13%
  Body Weight: 18.769 gm and 17.192 gm
  CHOL: 71 mg/dL and 59 mg/dL
  Ca: 9.0 mg/dL and 9.4 mg/dL
  Cl: 112 mEq/L and 117 mEq/L
  EOS: 0.02 K/uL
  EOS %: 0.50% and 0.66%
  GLUC: 254 mg/dL and 227 mg/dL
  HCT %: 45.9% and 42.5%
  HGB: 13.4 g/dL and 13.0 g/dL
  K: 3.5 mEq/L and 4.0 mEq/L
  LYM: 2.80 K/uL and 2.12 K/uL
  LYM %: 83.42% and 84.96%
  Left Kidney: 0.111 gm and 0.113 gm and 0.73 % body wt and 0.66 % body wt
  Liver: 1.111 gm and 0.988 gm and 5.92 % body wt and 5.75 % body wt
  MCH: 14.4 pg and 14.9 pg
  MCHC: 29.2 g/dL and 30.6 g/dL
  MCV: 49.2 fL and 48.8 fL
  MONO: 0.03 K/uL and 0.02 K/uL
  MONO %: 0.91% and 0.95%
  MPV: 4.6 fL and 4.9 fL
  NEUT: 0.51 K/uL and 0.33 K/uL
  NEUT %: 15.03% and 13.29%
  Na: 147 mEq/L and 149 mEq/L
  PLT: 990 K/uL and 1403 K/uL
  RBC: 9.33 M/uL and 8.70 M/uL
  RDW %: 16.4% and 16.2%
  Right Kidney: 0.137 gm and 0.127 gm and 0.73 % body wt and 0.74 % body wt
  Spleen: 0.081 gm and 0.048 gm and 0.43 % body wt and 0.28 % body wt
  WBC: 3.36 K/uL and 2.50 K/uL
[5]
  Lymph: 64 and 60 and 61 and 44
  Mast: 0
  Mat ery: 56 and 62 and 45 and 38
  Mat myel: 122 (2×) and 88 (2×) and 120 (2×) and 121 (2×)
  Plasma: 0
  Pro myel: 34 and 64 and 52 and 72
  Prol ery: 24 and 26 and 22 and 25
  Total Ery: 80 and 88 and 67 and 63
  Total myel: 156 and 152 and 172 and 193
[6]
  % Lymph: 21.3% and 20.0% and 20.3% and 14.7%
  % Mast: 0.0%
  % Mat ery: 18.7% and 20.7% and 15.0% and 12.7%
  % Plasma: 0.0%
  % Pro ery: 8.0% and 8.7% and 7.3% and 8.3%
  % Pro myel: 11.3% and 21.3% and 17.3% and 24.0%
  % T ery: 26.7% and 29.3% and 22.3% and 21.0%
  % T myel: 52.0% and 50.7% and 57.3% and 64.3%
  % mat myel: 40.7% and 29.3% and 40.0% and 40.3%
  M:E: 2.0 and 1.7 and 2.6 and 3.1
During and after treatment
  intestinal histology: No changes
[7]
  % Erythroid: 0% (3×) and 1%
  % Lymph: 94% (2×) and 90% (4×) and 86% (2×)
  % Macrophage: 2% (3×) and 0%
  % Mesenchymal: 0% (3×) and 2%
  % Myeloid: 4% and 7% and 9% and 10%
  % Plasma: 0% (3×) and 1%
[8]
  other blood counts, bone marrow cytology, serum chemistry: no other changes
  white cell count: reversible drop in white cell count with a nadir on day 19
